Test results reported in a melting point compilation (Tetko et al.; mined from patent text by program, amines drawn as free bases though some values may be those of a salt).

| SMILES | melting point |
| --- | --- |
| COc1cc2cc(CO)c(CO)c(-c3ccnc(-n4c(=O)cc(C(=O)N5CCN(CCO)CC5)c5ccccc54)c3)c2cc1OC | 150 to 153 °C |
| CCCCC1(C2CCCC2)Cc2cc(OCCCC(=O)O)c(Cl)c(Cl)c2C1=O (stereo not given) | 139 to 140 °C |
| COC(=O)C1=C(C)NC(N)=C(C(=O)OC(C)C)C1c1cccc([N+](=O)[O-])c1 (stereo not given) | 167 °C |
| CCN(c1cc(C(=O)OC)c(O)c2ncc(Cc3ccc(F)cc3)cc12)S(C)(=O)=O | 149 to 150 °C |
| CC(Cl)OC(=O)Oc1c(Br)cc(C#N)cc1Br (stereo not given) | 91 to 93 °C |
| S=C(Cc1cccnc1)N1CCC(=C2c3ccc(Cl)cc3CCc3cccnc32)CC1 | 92 to 93 °C |
| Cc1cc(C)c(Cn2cc(C(=O)C(=O)NC3=CC(=O)OC3)c3ccccc32)c(C)c1 | 288 to 290 °C |
| CN(C)CC(=O)NCc1cccc(-c2csc(N=C(N)N)n2)n1 | 199 °C |
| CCNCC1CCN(c2c(F)cc3c(=O)c(C(=O)O)cn(C4CCCC4)c3c2F)C1 (stereo not given) | 214 to 217 °C |
| Cc1cc(C2=CCN(CCCC(=O)c3ccc(F)cc3)CC2)on1 | 96 to 98 °C |
| CCOC(=O)c1cn2c(n1)SCC2 | 107 to 109 °C |
| Cn1cc(C(=O)O)c(=O)c2c3cc(N4CCC(O)(c5cccc(C(F)(F)F)c5)CC4)c(F)cc3ncc21 | 300 °C |
| NC(=O)C1N=COC1CCl (stereo not given) | 110 to 112 °C |
| CC1(C(=O)c2c[nH]c3ncc(Br)nc23)CCCCCC1 | 198 °C |
| NC(=O)C(F)(F)C1(c2ccc(Cl)cc2Cl)CO1 (stereo not given) | 100 to 101 °C |
| NC1CCN(c2cccc(Cl)n2)CC1 | 36 to 38 °C |
| COc1cc2c(cc1-c1ccoc1)C(=CNc1ccc(N3CCN(C)CC3)cc1)C(=O)NC2=O | 198 to 220 °C |
| CC1c2cc(F)ccc2CCN1C(=O)c1cc2ncc(Br)cn2n1 (stereo not given) | 174 to 176 °C |
| CCOC(=O)CON(C)C(=S)Nc1ccc(Cl)cc1C | 104 to 106 °C |
| CN(Cc1cc2cc([N+](=O)[O-])ccc2o1)C1Cc2ccc([N+](=O)[O-])cc2C1 (stereo not given) | 109 to 111 °C |
| CC(C)C(OC(=O)NC(C)(Cc1ccccc1)C(=O)NC(Cc1ccc(O)cc1)C(=O)NCCCCCCCO)c1ccccc1 (stereo not given) | 70 to 76 °C |
| O=C1OCC2(CC2)N1c1nc(-c2ccc(Br)cc2)cs1 | 201 to 202 °C |
| COC(=O)c1ccc(C(=O)N2CCC(NC3CCOCC3)CC2)cc1 | 129 °C |
| COC1CC(n2cc(C=CBr)c(=O)n(C)c2=O)OC1CF (stereo not given) | 95 °C |
| Cc1cccc(-c2[nH]c(C(C)C)nc2-c2cccc(-c3ccoc3)c2)n1 | 74 to 78 °C |
| O=C(NN1CCCCC1)c1nc(-c2ccc(Cl)cc2Cl)c(-c2ccc(Cl)cc2)o1 | 165 °C |
| O=S(=O)(Nc1cccc(CCOCc2csc(-c3ccc(OC(F)(F)F)cc3)n2)c1)C(F)(F)F | 115 to 116 °C |
| CCOc1ccnc(CSc2nc3cc4c(cc3[nH]2)C(C)(C)C(=O)C4(C)C)c1C | 175 to 176 °C |
| COc1ccc(Oc2c(C)cc(O)cc2C)cc1C(C)C | 60 to 64 °C |
| Nc1cc(-c2c(-c3cccc(Cl)c3)nc3ccc(Cl)nn23)ccn1 | 268 to 269 °C |

The remaining lines, values ahead:

| melting point | SMILES |
| --- | --- |
| 118 to 120 °C | CCC(C)C1C(=O)NN(c2ccc(Cl)c(Cl)c2)C1=O (stereo not given) |
| 53 to 55 °C | CC(=O)Nc1cc(SCC(C)C)ccc1[N+](=O)[O-] |
| > 320 °C | Cn1nnnc1-c1cn(C)c2cc(O)ccc2c1=O |
| 185 to 186 °C | CCCCNC(=O)/C(=C/C=C/c1cc2ccccc2[nH]1)OC |
| 207 to 208 °C | COc1ccnc(C(=O)c2[nH]c3cc(Cl)ccc3c2NC(C)=O)c1 |
| > 250 °C | CCOC(=O)c1ccc2cc(N)ccn2c1=O |
| 14 °C | CCCCCCC(=O)CC(=O)c1ccccc1 |
| 53 to 54 °C | CCC(=NOCc1cccs1)c1cc(Cl)ccc1NS(=O)(=O)C(F)(F)F |
| 201 to 202 °C | Cc1cccc(C)c1NC(=O)NCC1(c2ccccc2)CCCC1 |
| 49.5 to 50 °C | CSc1ccc(OC(=O)OCc2ccccc2Cl)cc1 |
| 81 °C | COC(=O)c1ccc(OCCNC(=O)OCc2ccccc2)c(Cl)c1 |
| 232 °C | CC(C)(C)Cn1c(=O)c(C#N)c(N2CCN(C(=O)c3cccs3)CC2)c2cccnc21 |
| 108 to 118 °C | CC(C)CC(NC(=O)C(Cc1c[nH]cn1)NC(=O)C(CC(=O)c1ccccc1)Cc1cccc2ccccc12)C(O)C(=O)OC(C)C (stereo not given) |
| 55 to 57 °C | CCCCCCCCCCNC(=O)c1ccccc1[N+](=O)[O-] |
| 58 to 65 °C | COc1ccc(S(=O)(=O)C(CCCCCc2ccc(Cl)cc2)C(=O)O)cc1 (stereo not given) |
| 298 °C | CCOC(=O)c1cn(-c2c[nH]nn2)c2cc(F)c(F)cc2c1=O |
| 201 to 203 °C | O=C(Oc1ccc(OC(=O)c2cc(O)cc(O)c2)c2ccccc12)c1cc(O)cc(O)c1 |
| 48 to 50 °C | CC(=S)c1ccc(-c2ccccc2)cc1 |
| 185 to 186 °C | ON=C(Cn1ccnc1)c1ccc(Cl)cc1 |
| 157 to 159 °C | O=C1NCC[C@@H](c2ccc(Oc3ccccc3)cc2)[C@@H]1c1ccccc1 (relative stereo) |

| melting point | SMILES |
| --- | --- |
| 160 to 161 °C | CC(=O)OCc1cc2c(c3c1CCC3)C(=O)c1ccccc1C2=O |
| 132 to 136 °C | CCOC(=O)c1csc(NCc2ccccc2)n1 |
| 98 to 100 °C | ON=C(c1ccc(Cl)cc1)c1ccc(Cl)cc1Cl |
| 65 °C | c1ccc(OCCSCc2nnc(-c3ccc(OCCN4CCCC4)cc3)o2)cc1 |
| 133 °C | CCCCCCOc1ccc(-c2ncc(C#N)c(Cl)n2)cc1 |
| 294 to 295 °C | N#Cc1c2cccccc-2n(CC(=O)O)c1=O |
| 83 to 85 °C | CCC1(CC)CN(C(C)(C)C)C(=O)C(CC)(CC)N1OCc1ccccc1 |
| 143 to 144 °C | CN(C)S(=O)(=O)n1cc(S(=O)(=O)N2CCc3ccccc3C2)nc1C#N |
| 77.4 to 79.8 °C | COc1ccc(C2=CCCC(=O)O2)cc1 |
| 191 to 193 °C | Cc1ccc(Oc2c(N3C(C)CCC3C)cc(C(=O)O)cc2S(N)(=O)=O)cc1 (stereo not given) |
| 163 to 166 °C | OCCOc1ccc(Nc2cc(Nc3ccccc3F)ncn2)cc1 |
| 82 to 85 °C | O=C(O)Cc1ccccc1Oc1ccccc1 |
| 190 °C | CC(C)(C)CC1N(C(c2ccccc2)C(O)c2ccccc2)C(C(=O)NC2CCC(O)CC2)C(c2cccc(Cl)c2F)C12C(=O)Nc1cc(Cl)ccc12 (stereo not given) |
| 148 to 150 °C | O=c1n(-c2ccc(C(F)(F)F)cc2)c(=O)n2n1CC(c1ccccc1)C2c1ccc(Cl)cc1 (stereo not given) |
| 95.5 to 97 °C | CCCCc1ncc(C=O)n1Cc1ccc(C(=O)OC)c2ccccc12 |
| 118 to 119 °C | CCN(C(=O)c1ccc(Cn2cnc3ccccc32)cc1)C1CCCCC1 |
| 118 to 119 °C | CP(=O)(O)CNC(=O)OCc1ccccc1 |
| 238 to 240 °C | Cc1ccc(NC(=S)NCc2ccc3c(c2)CN(C2CCC(=O)NC2=O)C3=O)cc1C(F)(F)F (stereo not given) |
| 230 to 232 °C | CC1(N2Cc3cc(CNC(=O)Cc4ccc(Cl)cc4)ccc3C2=O)CCC(=O)NC1=O (stereo not given) |
| 200 to 201 °C | CC1(C)CCC(C)(C)c2cc3c(cc21)OCC=C3Cc1ccc(C(=O)O)cc1 |
